The source of these data is patent publication US9902728B2, “Pyrrolo and pyrazolopyrimidines as ubiquitin-specific protease 7 inhibitors” (Forma Therapeutics, Inc., priority 2014, dated 2018).

SMILES strings stand for the structures.

In the first assay the target is T1, USP7 (Homo sapiens, UniProt Q93009).
T1 construct: USP7, construct USP7 (208-1102) 6*His, Viva Biotech; 6xHis (C); purchased Viva Biotech
T1 sequence (Q93009 208-1102): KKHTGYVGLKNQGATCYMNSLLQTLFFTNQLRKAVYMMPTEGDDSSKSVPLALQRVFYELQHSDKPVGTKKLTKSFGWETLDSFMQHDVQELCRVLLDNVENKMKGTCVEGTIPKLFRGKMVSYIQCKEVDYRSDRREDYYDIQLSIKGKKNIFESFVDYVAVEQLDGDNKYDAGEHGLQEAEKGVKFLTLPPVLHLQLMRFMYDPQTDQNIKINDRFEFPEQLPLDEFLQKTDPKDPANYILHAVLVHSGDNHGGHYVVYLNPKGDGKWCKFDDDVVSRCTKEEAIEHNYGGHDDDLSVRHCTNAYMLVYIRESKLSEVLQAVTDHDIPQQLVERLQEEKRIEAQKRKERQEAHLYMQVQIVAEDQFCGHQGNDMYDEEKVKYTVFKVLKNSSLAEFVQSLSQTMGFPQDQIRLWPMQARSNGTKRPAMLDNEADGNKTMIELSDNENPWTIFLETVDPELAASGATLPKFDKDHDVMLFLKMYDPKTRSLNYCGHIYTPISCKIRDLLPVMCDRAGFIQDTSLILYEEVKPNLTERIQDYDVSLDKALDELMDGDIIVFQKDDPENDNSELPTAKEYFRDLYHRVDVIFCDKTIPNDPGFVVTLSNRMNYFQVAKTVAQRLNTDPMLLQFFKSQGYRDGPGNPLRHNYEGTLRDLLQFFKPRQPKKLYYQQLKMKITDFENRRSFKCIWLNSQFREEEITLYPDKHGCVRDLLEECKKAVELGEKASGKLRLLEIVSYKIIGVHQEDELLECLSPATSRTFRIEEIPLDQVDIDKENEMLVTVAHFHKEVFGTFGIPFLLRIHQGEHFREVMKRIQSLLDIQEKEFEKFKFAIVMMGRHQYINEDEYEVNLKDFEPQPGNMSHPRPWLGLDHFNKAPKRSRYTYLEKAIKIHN
As to the kind of experiment: USP7 Assay A (Ubitquin-Rhodamine 110 Assay). It counts as biochemical. The note with it: USP7 activity in USP7 assay A and B (table does not say which assay per compound); read-out: USP7_IC50. In short, it runs like this: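 Enzyme and compound sat together for 30 min before Ub-Rh110 was added, in buffer of 20 mM Tris-HCl (pH 8.0), 1 mM GSH, 0.03% BGG and 0.01% Triton X-100.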
Turning to `O=C(C[C@H](C(F)F)n1cc(F)cn1)N1CCC(O)(Cn2cnc3c(cnn3-c3ccc(F)cc3)c2=O)CC1` [Compound I-1159], the IC50 was under 200 nM.
Turning to `Cc1ccc(-n2ncc3c(=O)n(CC4(O)CCN(C(=O)c5ccc(Oc6ccc(OCCO)cn6)cc5)CC4)cnc32)cc1` [Compound I-1160], the IC50 is 200 to 1000 nM.
For `Cn1cc(C(=O)N2CCC(O)(Cn3cnc4c(cnn4-c4ccc(F)cc4)c3=O)CC2)c(Cc2ccccc2)n1` [Compound I-1161], the IC50 is under 200 nM.
As to `C[C@H](c1ccccc1)c1nn(C)cc1C(=O)N1CCC(O)(Cn2cnc3c(cnn3-c3ccc(F)cc3)c2=O)CC1` [Compound I-1162], the IC50 is under 200 nM.
As for `C[C@@H](c1ccccc1)c1nn(C)cc1C(=O)N1CCC(O)(Cn2cnc3c(cnn3-c3ccc(F)cc3)c2=O)CC1` [Compound I-1163], the IC50 is 1000 to 10000 nM.
For `Cc1onc(Cc2ccccc2)c1C(=O)N1CCC(O)(Cn2cnc3c(cnn3-c3ccc(F)cc3)c2=O)CC1` [Compound I-1164], the IC50 was under 200 nM.
For `O=C(C[C@@H](C(F)F)n1ccc(F)n1)N1CCC(O)(Cn2cnc3c(cnn3-c3ccc(Cl)cc3)c2=O)CC1` [Compound I-1166], the IC50 is under 200 nM.
Still for that read-out and setting: the value for `O=C(C[C@H](C(F)F)n1ccc(F)n1)N1CCC(O)(Cn2cnc3c(cnn3-c3ccc(Cl)cc3)c2=O)CC1` [Compound I-1167] was 1000 to 10000 nM; that for `CC1(O)CCN(c2ccc(-n3ncc4c(=O)n(CC5(O)CCN(C(=O)c6ccc(F)cc6)CC5)cnc43)cc2)C1` (centres unmarked) [Compound I-1168] was 200 to 1000 nM.
Same read-out and setting: for `O=C(c1ccc(F)cc1)N1CCC(O)(Cn2cnc3c(cnn3-c3ccc(N4CCCn5ccnc54)cc3)c2=O)CC1` [Compound I-1170] the value was 200 to 1000 nM; for `Cc1nc2n(n1)CCN(c1ccc(-n3ncc4c(=O)n(CC5(O)CCN(C(=O)c6ccc(F)cc6)CC5)cnc43)cc1)C2` [Compound I-1176], 1000 to 10000 nM.
Same read-out and setting: for `O=C(c1ccc(F)cc1)N1CCC(O)(Cn2cnc3c(cnn3-c3ccc(N4CCn5ncnc5C4)cc3)c2=O)CC1` [Compound I-1178] the value was 1000 to 10000 nM; for `O=C(C1CCC(Oc2cccnn2)CC1)N1CCC(O)(Cn2cnc3c(cnn3-c3ccc(F)cc3)c2=O)CC1` (centres unmarked) [Compound I-1212], 200 to 1000 nM.

The assay is the same for the next values; noted with them: USP7 assay A and B (table does not say which assay per compound); read-out: USP7_IC50.
Turning to `CC(C)OCCNc1ccc(-n2ncc3c(=O)n(CC4(O)CCN(C(=O)C5CC5)CC4)cnc32)cc1` [Compound I-1149], the IC50 fell in the range of 1000 to 10000 nM.
With `CN1CCCC(CNc2ccc(-n3ncc4c(=O)n(CC5(O)CCN(C(=O)C6CC6)CC5)cnc43)cc2)C1` (centres unmarked) [Compound I-1151], the IC50 was in the range of 200 to 1000 nM.
The same measure, in the same setting: the value for `O=C(C1CC1)N1CCC(O)(Cn2cnc3c(cnn3-c3cccc(NCc4ccccc4)c3)c2=O)CC1` [Compound I-1155] was 200 to 1000 nM.
For `O=C(C1CC1)N1CCC(O)(Cn2cnc3c(cnn3-c3cccc(NCc4cccnc4)c3)c2=O)CC1` [Compound I-1158], the IC50 lay in the range of 1000 to 10000 nM.
On the same count and under the same terms, the value for `O=C(C1CC1)N1CCC(O)(Cn2cnc3c(cnn3-c3ccc(NCCc4ccccc4)cc3)c2=O)CC1` [Compound I-1187] was 1000 to 10000 nM.
As for `COc1ccc(Nc2ccc(-n3ncc4c(=O)n(CC5(O)CCN(C(=O)C6CC6)CC5)cnc43)cc2)cn1` [Compound I-1191], the IC50 fell in the range of 1000 to 10000 nM.
`O=C(C1CC1)N1CCC(O)(Cn2cnc3c(cnn3-c3cccc(NCCN4CCOCC4)c3)c2=O)CC1` [Compound I-1194]: the IC50 is 1000 to 10000 nM.
Same read-out and setting: for `CC(C)OCCNc1cccc(-n2ncc3c(=O)n(CC4(O)CCN(C(=O)C5CC5)CC4)cnc32)c1` [Compound I-1196] the value was 1000 to 10000 nM.
For `CN1CCCC(CNc2cccc(-n3ncc4c(=O)n(CC5(O)CCN(C(=O)C6CC6)CC5)cnc43)c2)C1` (centres unmarked) [Compound I-1197], the IC50 is 200 to 1000 nM.
With `O=C(C1CC1)N1CCC(O)(Cn2cnc3c(cnn3-c3ccc(N4CCCC4)cc3)c2=O)CC1` [Compound I-1199], the IC50 lay in the range of 1000 to 10000 nM.
Take `O=C(C1CC1)N1CCC(O)(Cn2cnc3c(cnn3-c3cccc(N4CCCC4)c3)c2=O)CC1` [Compound I-1200]: the IC50 is 200 to 1000 nM.
On the same count and under the same terms, for `O=C(C1CC1)N1CCC(O)(Cn2cnc3c(cnn3-c3cccc(N4CCCCC4)c3)c2=O)CC1` [Compound I-1202] the value was 1000 to 10000 nM.
The same measure, in the same setting: the value for `O=C(C1CC1)N1CCC(O)(Cn2cnc3c(cnn3-c3cccc(N4CCC(c5ccccc5)CC4)c3)c2=O)CC1` [Compound I-1205] was 1000 to 10000 nM; that for `CC(=O)NC1CCN(c2ccc(-n3ncc4c(=O)n(CC5(O)CCN(C(=O)C6CC6)CC5)cnc43)cc2)CC1` [Compound I-1208] was 1000 to 10000 nM; that for `CN(C)C1CCN(c2cccc(-n3ncc4c(=O)n(CC5(O)CCN(C(=O)C6CC6)CC5)cnc43)c2)CC1` [Compound I-1209] was 200 to 1000 nM.
In the case of `CC(=O)N1CCN(c2ccc(-n3ncc4c(=O)n(CC5(O)CCN(C(=O)C6CC6)CC5)cnc43)cc2)CC1` [Compound I-1211], the IC50 fell in the range of 1000 to 10000 nM.
Still for that read-out and setting: for `O=C(C1CC1)N1CCC(O)(Cn2cnc3c(cnn3-c3ccc(-c4ccccn4)cc3)c2=O)CC1` [Compound I-1214] the value was 1000 to 10000 nM; for `O=C(C1CC1)N1CCC(O)(Cn2cnc3c(cnn3-c3ccc(N4CCC5(CCOCC5)C4)cc3)c2=O)CC1` [Compound I-1216], 1000 to 10000 nM; for `O=C(C1CC1)N1CCC(O)(Cn2cnc3c(cnn3-c3cccc(Nc4ccncc4)c3)c2=O)CC1` [Compound I-1232], 1000 to 10000 nM.
Turning to `O=C(C1CC1)N1CCC(O)(Cn2cnc3c(cnn3-c3ccc(Nc4ccc(N5CCOCC5)cc4)cc3)c2=O)CC1` [Compound I-1234], the IC50 was in the range of 1000 to 10000 nM.
Regarding `O=C(C1CC1)N1CCC(O)(Cn2cnc3c(cnn3-c3cccc(Nc4ccc5ncsc5c4)c3)c2=O)CC1` [Compound I-1257], the IC50 was 200 to 1000 nM.
Still for that read-out and setting: for `N#Cc1ccc(Nc2ccc(-n3ncc4c(=O)n(CC5(O)CCN(C(=O)C6CC6)CC5)cnc43)cc2)nc1` [Compound I-1277] the value was 1000 to 10000 nM.
Still for that read-out and setting: for `O=C(c1ccc(F)cc1)N1CCC(O)(Cn2cnc3c(cnn3-c3cccc(OCc4ccccc4)c3)c2=O)CC1` [Compound I-1285] the value was 1000 to 10000 nM; for `CN(C)C(=O)N1CCC(O)(Cn2cnc3c(cnn3-c3ccc(OCC4CC4)cc3)c2=O)CC1` [Compound I-1289], 1000 to 10000 nM.
On the same count and under the same terms, for `CN(C)C(=O)N1CCC(O)(Cn2cnc3c(cnn3-c3ccc(OCC4CCC4)cc3)c2=O)CC1` [Compound I-1295] the value was 1000 to 10000 nM.
`NC(=O)COc1ccc(-n2ncc3c(=O)n(CC4(O)CCN(C(=O)c5ccc(F)cc5)CC4)cnc32)cc1` [Compound I-1307]: the IC50 was 1000 to 10000 nM.
Same read-out and setting: for `CN1CCCCC1COc1ccc(-n2ncc3c(=O)n(CC4(O)CCN(C(=O)c5ccc(F)cc5)CC4)cnc32)cc1` (centres unmarked) [Compound I-1313] the value was 200 to 1000 nM.
Consider `CN1CCCCC1COc1cccc(-n2ncc3c(=O)n(CC4(O)CCN(C(=O)c5ccc(F)cc5)CC4)cnc32)c1` (centres unmarked) [Compound I-1314], for which the IC50 lay within 200 to 1000 nM.
The same measure, in the same setting: the value for `N#Cc1cccc(COc2ccc(-n3ncc4c(=O)n(CC5(O)CCN(C(=O)c6ccc(F)cc6)CC5)cnc43)cc2)c1` [Compound I-1318] was 1000 to 10000 nM; that for `N#CCOc1ccc(-n2ncc3c(=O)n(CC4(O)CCN(C(=O)c5ccc(F)cc5)CC4)cnc32)cc1` [Compound I-1320] was 1000 to 10000 nM.
Take `O=C(c1ccc(F)cc1)N1CCC(O)(Cn2cnc3c(cnn3-c3ccc(OCC4CCOCC4)cc3)c2=O)CC1` [Compound I-1324]: the IC50 fell in the range of 1000 to 10000 nM.
As for `O=C(c1ccc(F)cc1)N1CCC(O)(Cn2cnc3c(cnn3-c3cccc(OCC4CCOCC4)c3)c2=O)CC1` [Compound I-1325], the IC50 was in the range of 1000 to 10000 nM.
For the compound `COCCOc1ccc(-n2ncc3c(=O)n(CC4(O)CCN(C(=O)c5ccc(F)cc5)CC4)cnc32)cc1` [Compound I-1363], the IC50 fell in the range of 1000 to 10000 nM.
Consider `O=C(Nc1ccc(-n2ncc3c(=O)n(CC4(O)CCN(C(=O)C5CC5)CC4)cnc32)cc1)C1CC1` [Compound I-1377], for which the IC50 fell in the range of 1000 to 10000 nM.
For `O=C(Nc1ccc(-n2ncc3c(=O)n(CC4(O)CCN(C(=O)C5CC5)CC4)cnc32)cc1)c1ccccc1F` [Compound I-1380], the IC50 was 1000 to 10000 nM.
On the same count and under the same terms, the value for `O=C(Nc1ccc(-n2ncc3c(=O)n(CC4(O)CCN(C(=O)C5CC5)CC4)cnc32)cc1)c1ccccn1` [Compound I-1383] was 1000 to 10000 nM; that for `O=C(Nc1ccc(-n2ncc3c(=O)n(CC4(O)CCN(C(=O)C5CC5)CC4)cnc32)cc1)C1CCOCC1` [Compound I-1395] was 1000 to 10000 nM; that for `Cc1oncc1S(=O)(=O)Nc1cccc(-n2ncc3c(=O)n(CC4(O)CCN(C(=O)C5CC5)CC4)cnc32)c1` [Compound I-1400] was 1000 to 10000 nM.
Still for that read-out and setting: for `O=C(C1CC1)N1CCC(O)(Cn2cnc3c(cnn3-c3ccc(NCC4CCOCC4)cc3)c2=O)CC1` [Compound I-1402] the value was 1000 to 10000 nM; for `O=C(C1CC1)N1CCC(O)(Cn2cnc3c(cnn3-c3cccc(NS(=O)(=O)c4cccc(Cl)c4)c3)c2=O)CC1` [Compound I-1406], 1000 to 10000 nM; for `CS(=O)(=O)Nc1cccc(-n2ncc3c(=O)n(CC4(O)CCN(C(=O)C5CC5)CC4)cnc32)c1` [Compound I-1417], 1000 to 10000 nM.
As to `Cc1noc(C)c1S(=O)(=O)Nc1ccc(-n2ncc3c(=O)n(CC4(O)CCN(C(=O)C5CC5)CC4)cnc32)cc1` [Compound I-1421], the IC50 was in the range of 1000 to 10000 nM.
The same measure, in the same setting: for `O=C(C1CC1)N1CCC(O)(Cn2cnc3c(cnn3-c3ccc(NS(=O)(=O)c4ccc(Cl)cc4)cc3)c2=O)CC1` [Compound I-1422] the value was 1000 to 10000 nM; for `Cc1ccccc1S(=O)(=O)Nc1ccc(-n2ncc3c(=O)n(CC4(O)CCN(C(=O)C5CC5)CC4)cnc32)cc1` [Compound I-1425], 1000 to 10000 nM; for `O=C(C1CC1)N1CCC(O)(Cn2cnc3c(cnn3-c3ccc(NS(=O)(=O)c4cccc(Cl)c4)cc3)c2=O)CC1` [Compound I-1428], 1000 to 10000 nM.
Still for that read-out and setting: for `CS(=O)(=O)Nc1ccc(-n2ncc3c(=O)n(CC4(O)CCN(C(=O)C5CC5)CC4)cnc32)cc1` [Compound I-1431] the value was 1000 to 10000 nM.
